Results reported in patent publication US20250235460A1, “COMBINATION THERAPY USING GLUCOSE-DEPENDENT INSULINOTROPIC POLYPEPTIDE RECEPTOR ANTAGONIST COMPOUNDS AND GLP-1 RECEPTOR AGONIST COMPOUNDS” (Pfizer Inc., priority 2024, published 2025).

Target: human GLP-1R (Homo sapiens, UniProt P43220, G168S)
Assay: CHO GLP-1R Clone H6 cAMP HTRF agonist assay (Assay 1, high receptor density)
Assay type: cell-based
Details: for EC50: CHO GLP-1R clone H6, cAMP HTRF, geometric mean; for Emax: CHO GLP-1R clone H6, arithmetic mean, relative to saturating GLP-1 (1 μM), read-out: Assay 1 Emax (%)
Text: In Table 5 and Table 6, assay data are presented to two (2) significant figures as the geometric mean (EC50s) and arithmetic mean (Emax) based on the number of replicates listed (Number). A blank cell means there was no data for that Example or the Emax was not calculated.

Chain of human GLP-1R (P43220 24-463 G168S): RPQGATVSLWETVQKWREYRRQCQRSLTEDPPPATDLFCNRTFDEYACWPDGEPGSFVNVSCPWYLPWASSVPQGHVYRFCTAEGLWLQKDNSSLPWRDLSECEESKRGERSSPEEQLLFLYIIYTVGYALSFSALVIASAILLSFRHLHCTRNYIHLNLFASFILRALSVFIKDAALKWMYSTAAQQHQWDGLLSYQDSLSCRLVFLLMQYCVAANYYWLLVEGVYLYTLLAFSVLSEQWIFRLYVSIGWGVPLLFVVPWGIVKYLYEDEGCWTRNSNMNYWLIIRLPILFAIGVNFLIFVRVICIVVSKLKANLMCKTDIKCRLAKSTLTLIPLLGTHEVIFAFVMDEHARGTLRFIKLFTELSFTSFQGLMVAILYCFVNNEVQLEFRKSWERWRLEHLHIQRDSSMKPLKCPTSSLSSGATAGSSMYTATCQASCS

Row | EC50 [nM] | Emax [%] | Compound
1 | 300 | 66 | CN1CCC[C@@H]1Cn1c(CN2CCC(c3cccc(OCc4ccc(Cl)cc4F)n3)CC2)nc2ccc(C(=O)O)cc21 [Compound 309B, 2-[(4-{6-[(4-chloro-2-fluorobenzyl)oxy]pyridin-2-yl}piperidin-1-yl)methyl]-1-{[(2R)-1-methylpyrrolidin-2-yl]methyl}-1H-benzimidazole-6-carboxylic acid]
2 | 320 | 79 | Cc1cc(Cn2c(CN3CCC(c4cccc(OCc5ccc(Cl)cc5F)n4)CC3)nc3ccc(C(=O)O)cc32)no1 [Compound 310B, 2-[(4-{6-[(4-chloro-2-fluorobenzyl)oxy]pyridin-2-yl}piperidin-1-yl)methyl]-1-[(5-methyl-1,2-oxazol-3-yl)methyl]-1H-benzimidazole-6-carboxylic acid]
3 | 350 | 71 | Cn1cc(Cn2c(CN3CCC(c4cccc(OCc5ccc(Cl)cc5F)n4)CC3)nc3ccc(C(=O)O)cc32)nn1 [Compound 311B, 2-[(4-{6-[(4-chloro-2-fluorobenzyl)oxy]pyridin-2-yl}piperidin-1-yl)methyl]-1-[(1-methyl-1H-1,2,3-triazol-4-yl)methyl]-1H-benzimidazole-6-carboxylic acid]
4 | 380 | 68 | O=C(O)c1ccc2nc(CN3CCC(c4cccc(OCc5ccc(Cl)cc5F)n4)CC3)n(Cc3cnc[nH]3)c2c1 [Compound 312B, 2-[(4-{6-[(4-chloro-2-fluorobenzyl)oxy]pyridin-2-yl}piperidin-1-yl)methyl]-1-(1H-imidazol-5-ylmethyl)-1H-benzimidazole-6-carboxylic acid]
5 | 380 | 75 | COCCCn1c(CN2CCC(c3cccc(OCc4ccc(Cl)cc4F)n3)CC2)nc2ccc(C(=O)O)cc21 [Compound 313B, 2-[(4-{6-[(4-chloro-2-fluorobenzyl)oxy]pyridin-2-yl}piperidin-1-yl)methyl]-1-(3-methoxypropyl)-1H-benzimidazole-6-carboxylic acid]
6 | 390 | 69 | CCn1ccnc1Cn1c(CN2CCC(c3cccc(OCc4ccc(Cl)cc4F)n3)CC2)nc2ccc(C(=O)O)cc21 [Compound 314B, 2-[(4-{6-[(4-chloro-2-fluorobenzyl)oxy]pyridin-2-yl}piperidin-1-yl)methyl]-1-[(1-ethyl-1H-imidazol-2-yl)methyl]-1H-benzimidazole-6-carboxylic acid]
7 | 440 | 86 | O=C(O)c1ccc2nc(CN3CCC(c4cccc(OCc5ccc(Cl)cc5F)n4)CC3)n(CC3CCCOC3)c2c1 (stereo not drawn) [Compound 315B, 2-[(4-{6-[(4-chloro-2-fluorobenzyl)oxy]pyridin-2-yl}piperidin-1-yl)methyl]-1-(tetrahydro-2H-pyran-3-ylmethyl)-1H-benzimidazole-6-carboxylic acid]
8 | 500 | 69 | CN1CC(Cn2c(CN3CCC(c4cccc(OCc5ccc(Cl)cc5F)n4)CC3)nc3ccc(C(=O)O)cc32)CC1=O (stereo not drawn) [Compound 317B, 2-[(4-{6-[(4-chloro-2-fluorobenzyl)oxy]pyridin-2-yl}piperidin-1-yl)methyl]-1-[(1-methyl-5-oxopyrrolidin-3-yl)methyl]-1H-benzimidazole-6-carboxylic acid]
9 | 520 |  | Cn1cc(Cn2c(CN3CCC(c4cccc(OCc5ccc(Cl)cc5F)n4)CC3)nc3ccc(C(=O)O)cc32)cn1 [Compound 318B, 2-[(4-{6-[(4-chloro-2-fluorobenzyl)oxy]pyridin-2-yl}piperidin-1-yl)methyl]-1-[(1-methyl-1H-pyrazol-4-yl)methyl]-1H-benzimidazole-6-carboxylic acid]
10 | 1100 | 47 | Cn1cc(CCn2c(CN3CCC(c4cccc(OCc5ccc(Cl)cc5F)n4)CC3)nc3ccc(C(=O)O)cc32)nn1 [Compound 319B, 2-[(4-{6-[(4-chloro-2-fluorobenzyl)oxy]pyridin-2-yl}piperidin-1-yl)methyl]-1-[2-(1-methyl-1H-1,2,3-triazol-4-yl)ethyl]-1H-benzimidazole-6-carboxylicacid]
11 | 1100 | 65 | COC[C@H](C)n1c(CN2CCC(c3cccc(OCc4ccc(Cl)cc4F)n3)CC2)nc2ccc(C(=O)O)cc21 [Compound 320B, 2-[(4-{6-[(4-chloro-2-fluorobenzyl)oxy]pyridin-2-yl}piperidin-1-yl)methyl]-1-[(2S)-1-methoxypropan-2-yl]-1H-benzimidazole-6-carboxylic acid]
12 | 1100 | 81 | COC[C@@H](C)n1c(CN2CCC(c3cccc(OCc4ccc(Cl)cc4F)n3)CC2)nc2ccc(C(=O)O)cc21 [Compound 321B, 2-[(4-{6-[(4-chloro-2-fluorobenzyl)oxy]pyridin-2-yl}piperidin-1-yl)methyl]-1-[(2R)-1-methoxypropan-2-yl]-1H-benzimidazole-6-carboxylic acid]
13 | 1400 | 97 | Cc1cc(Cn2c(CN3CCC(c4cccc(OCc5ccc(Cl)cc5F)n4)CC3)nc3ccc(C(=O)O)cc32)on1 [Compound 322B, 2-[(4-{6-[(4-chloro-2-fluorobenzyl)oxy]pyridin-2-yl}piperidin-1-yl)methyl]-1-[(3-methyl-1,2-oxazol-5-yl)methyl]-1H-benzimidazole-6-carboxylic acid]
14 | 1600 | 80 | O=C(O)c1ccc2nc(CN3CCC(c4cccc(OCc5ccc(Cl)cc5F)n4)CC3)n(CC3CCCCO3)c2c1 (stereo not drawn) [Compound 323B, 2-[(4-{6-[(4-chloro-2-fluorobenzyl)oxy]pyridin-2-yl}piperidin-1-yl)methyl]-1-(tetrahydro-2H-pyran-2-ylmethyl)-1H-benzimidazole-6-carboxylic acid]
15 | 1900 | 79 | O=C(O)c1ccc2nc(CN3CCC(c4cccc(OCc5ccc(Cl)cc5F)n4)CC3)n(CC3CCOCC3)c2c1 [Compound 324B, 2-[(4-{6-[(4-chloro-2-fluorobenzyl)oxy]pyridin-2-yl}piperidin-1-yl)methyl]-1-(tetrahydro-2H-pyran-4-ylmethyl)-1H-benzimidazole-6-carboxylic acid]
16 | 2200 | 87 | O=C(O)c1ccc2nc(CN3CCC(c4cccc(OCc5ccc(Cl)cc5F)n4)CC3)n(CCN3CCOCC3)c2c1 [Compound 325B, 2-[(4-{6-[(4-chloro-2-fluorobenzyl)oxy]pyridin-2-yl}piperidin-1-yl)methyl]-1-[2-(morpholin-4-yl)ethyl]-1H-benzimidazole-6-carboxylic acid]
17 | 2500 | 71 | O=C(O)c1ccc2nc(CN3CCC(c4cccc(OCc5ccc(Cl)cc5F)n4)CC3)n(CC3CC(F)(F)C3)c2c1 [Compound 326B, 2-[(4-{6-[(4-chloro-2-fluorobenzyl)oxy]pyridin-2-yl}piperidin-1-yl)methyl]-1-[(3,3-difluorocyclobutyl)methyl]-1H-benzimidazole-6-carboxylic acid]
18 | 2900 | 88 | CC(c1nncn1C)n1c(CN2CCC(c3cccc(OCc4ccc(Cl)cc4F)n3)CC2)nc2ccc(C(=O)O)cc21 (stereo not drawn) [Compound 327B, 2-[(4-{6-[(4-chloro-2-fluorobenzyl)oxy]pyridin-2-yl}piperidin-1-yl)methyl]-1-[1-(4-methyl-4H-1,2,4-triazol-3-yl)ethyl]-1H-benzimidazole-6-carboxylic acid]
19 | 3100 | 51 | Cn1cnnc1CCn1c(CN2CCC(c3cccc(OCc4ccc(Cl)cc4F)n3)CC2)nc2ccc(C(=O)O)cc21 [Compound 328B, 2-[(4-{6-[(4-chloro-2-fluorobenzyl)oxy]pyridin-2-yl}piperidin-1-yl)methyl]-1-[2-(4-methyl-4H-1,2,4-triazol-3-yl)ethyl]-1H-benzimidazole-6-carboxylic acid]
20 | 4000 | 91 | CCN1CCC[C@@H]1Cn1c(CN2CCC(c3cccc(OCc4ccc(Cl)cc4F)n3)CC2)nc2ccc(C(=O)O)cc21 [Compound 329B, 2-[(4-{6-[(4-chloro-2-fluorobenzyl)oxy]pyridin-2-yl}piperidin-1-yl)methyl]-1-{[(2R)-1-ethylpyrrolidin-2-yl]methyl}-1H-benzimidazole-6-carboxylic acid]
21 | 9300 | 100 | Cc1nc(Cn2c(CN3CCC(c4cccc(OCc5ccc(Cl)cc5F)n4)CC3)nc3ccc(C(=O)O)cc32)c(C)o1 [Compound 330B, 2-[(4-{6-[(4-chloro-2-fluorobenzyl)oxy]pyridin-2-yl}piperidin-1-yl)methyl]-1-[(2,5-dimethyl-1,3-oxazol-4-yl)methyl]-1H-benzimidazole-6-carboxylic acid]
22 | 560 | 72 | COCc1cc(Cn2c(CN3CCC(c4cccc(OCc5ccc(Cl)cc5F)n4)CC3)nc3ccc(C(=O)O)cc32)[nH]n1 [Compound 337B, 2-[(4-{6-[(4-chloro-2-fluorobenzyl)oxy]pyridin-2-yl}piperidin-1-yl)methyl]-1-{[3-(methoxymethyl)-1H-pyrazol-5-yl]methyl}-1H-benzimidazole-6-carboxylic acid]
23 | > 20000 |  | CN1CCOC(Cn2c(CN3CCC(c4cccc(OCc5ccc(Cl)cc5F)n4)CC3)nc3ccc(C(=O)O)cc32)C1 (stereo not drawn) [Compound 338B, 2-[(4-{6-[(4-chloro-2-fluorobenzyl)oxy]pyridin-2-yl}piperidin-1-yl)methyl]-1-[(4-methylmorpholin-2-yl)methyl]-1H-benzimidazole-6-carboxylic acid]
24 | 600 | 70 | O=C(O)c1ccc2nc(CN3CCC(c4cccc(OCc5ccc(Cl)cc5F)n4)CC3)n(CCC3CCOCC3)c2c1 [Compound 340B, 2-[(4-{6-[(4-chloro-2-fluorobenzyl)oxy]pyridin-2-yl}piperidin-1-yl)methyl]-1-[2-(tetrahydro-2H-pyran-4-yl)ethyl]-1H-benzimidazole-6-carboxylic acid]
25 | 250 | 64 | Cc1n[nH]c(CCn2c(CN3CCC(c4cccc(OCc5ccc(Cl)cc5F)n4)CC3)nc3ccc(C(=O)O)cc32)n1 [Compound 341B, 2-[(4-{6-[(4-chloro-2-fluorobenzyl)oxy]pyridin-2-yl}piperidin-1-yl)methyl]-1-[2-(3-methyl-1H-1,2,4-triazol-5-yl)ethyl]-1H-benzimidazole-6-carboxylic acid]
